“And” between values parts separate entries of the source, which are not always exact repeats. Equal entries are not always repeated.
Legend:
[1] = species on record: Canis familiaris; assay: In vitro electrophysiological activity in isolated canine cardiac ventricular muscle tissue given as maximum change in FRP from control value at 100 uM concentration; assay type: functional, Canis lupus familiaris
[2] = species on record: Canis familiaris; assay: In vitro activity in isolated canine cardiac Purkinje fibers given as maximum change in APD95 from control value at 100 uM of concentration; assay type: functional, Canis lupus familiaris, Purkinje fiber
[3] = species on record: Canis familiaris; assay: In vitro activity in isolated canine cardiac Purkinje fibers given as maximum change in APD95 from control value at 10 uM of concentration; assay type: functional, Canis lupus familiaris, Purkinje fiber
[4] = species on record: Canis familiaris; assay: In vitro activity in isolated canine cardiac ventricular muscle tissue given as 20 percent increase or decrease in FRP (functional refractory period); parameters: species or system Canis lupus familiaris
[5] = species on record: Canis familiaris; assay: In vitro activity in isolated canine cardiac Purkinje fibers given as 20 percent increase or decrease in action potential duration; assay type: functional, Canis lupus familiaris, Purkinje fiber
[6] = species on record: Canis familiaris; assay: The compound was evaluated for the mean effective dose for antiarrhythmic efficacy in PES model; assay type: functional; conditions: Canis lupus familiaris, Heart; read-out: MED
[7] = species on record: Canis familiaris; assay: The compound was evaluated for the change in blood pressure at MED for 0.3-30 dose range in PES model; assay type: functional, Canis lupus familiaris
[8] = test system: Canis familiaris; assay: The compound was evaluated the change in functional refractory period at 10 mg/kg active dose; parameters: species or system Canis lupus familiaris
[9] = test system: Canis familiaris; assay: The compound was evaluated the change in heart rate at 10 mg/kg active dose; assay type: functional, Canis lupus familiaris
[10] = species on record: Canis familiaris; assay: The compound was evaluated for the change in heart rate at MED for 0.3-30 dose range in PES model.; assay type: functional, Canis lupus familiaris
[11] = test system: Canis familiaris; assay: The compound was evaluated the change in blood pressure at 10 mg/kg active dose; assay type: functional, Canis lupus familiaris
[12] = species on record: Canis familiaris; assay: The compound was evaluated for the change in heart rate at MED for 0.1-10 dose range in PES model; assay type: functional, Canis lupus familiaris
[13] = species on record: Canis familiaris; assay: The compound was evaluated for the change in blood pressure at MED for 0.1-10 dose range in PES model; assay type: functional, Canis lupus familiaris
[14] = species on record: Canis familiaris; assay: The compound was evaluated for the change in blood pressure at MED for 0.3-10 dose range in PES model; assay type: functional, Canis lupus familiaris
[15] = species on record: Canis familiaris; assay: The compound was evaluated for the change in heart rate at MED for 0.3-10 dose range in PES model; assay type: functional, Canis lupus familiaris
[16] = species on record: Canis familiaris; assay: In vitro electrophysiological activity in isolated canine cardiac ventricular muscle tissue given as maximum change in FRP from control value at 100 uM concentration; NR = Not reached; assay type: functional; conditions: Canis lupus familiaris
[17] = species on record: Canis familiaris; assay: The compound was evaluated for the change in blood pressure at MED for 0.1-30 dose range in PES model; assay type: functional, Canis lupus familiaris
[18] = species on record: Canis familiaris; assay: The compound was evaluated for the change in heart rate at MED for 0.1-30 dose range in PES model; assay type: functional, Canis lupus familiaris

Structure (SMILES)	FRP [1]	APD95 [2]	C20 FRP [4]	C20 APD95 [5]	also measured
C[n+]1ccn(CCc2ccc(O)cc2)c1.[Cl-]	7%	20%	50.1 µM	6.2 µM	APD95 [3]: 23%
C[n+]1ccn(/C=C/c2ccc(O)cc2)c1.[Br-]		27%		10.2 µM	APD95 [3]: 23% and 20%
Cn1cc[n+](C)c1C(O)c1ccc(NS(C)(=O)=O)cc1.[I-] (configuration not stated)	17%	37%		20.7 µM	
CC1=NCCN1CC(O)c1ccc(NS(C)(=O)=O)cc1.Cl (configuration not stated)	42% and 38%	63%	1.1 µM and 1.9 µM	0.6 µM	minimal effective dose [6]: 2 mg/kg; BP [7]: -1%; FRP [8]: 22%; HR [9]: -23%; HR [10]: -21%; BP [11]: 2%
CCCCCCC[N+](CC)(CC)CCCCc1ccc(Cl)cc1 [CLOFILIUM]	7%			0.26 µM	APD95 [3]: 39%; minimal effective dose [6]: 0.63 mg/kg; HR [12]: -12%; FRP [8]: 22%; HR [9]: -18%; BP [13]: 2%; BP [11]: -4%
C[n+]1ccn(CC(O)c2ccc(NS(C)(=O)=O)cc2)c1.[Cl-] (configuration not stated)	31%	50%	5.9 µM	1.6 µM	minimal effective dose [6]: 6.5 mg/kg; BP [14]: 0%; HR [15]: -23%; FRP [8]: 21%; HR [9]: -10%; BP [11]: 5%
Cc1n2c(c[n+]1C)C(c1ccc(NS(C)(=O)=O)cc1)CCC2.[I-] (configuration not stated)		27%		46.6 µM	FRP [16]: Not reached
CC1=NCCN1CC(=O)c1ccc(NS(C)(=O)=O)cc1	38%	74%	6.3 µM	1.3 µM	
CC(C(O)c1ccc(NS(C)(=O)=O)cc1)n1cc[n+](C)c1.[Cl-] (configuration not stated)	31%	36%	11.2 µM	4.2 µM	
Cc1n2c(c[n+]1C)C(c1ccc(NS(C)(=O)=O)cc1)=CCC2.[I-]	40%	38%	2.9 µM	2.8 µM	
CS(=O)(=O)Nc1ccc(C(=O)C[n+]2ccsc2)cc1.[Cl-]	17%	80%	10 µM	3.1 µM	
CC(C)NCC(O)c1ccc(NS(C)(=O)=O)cc1 (configuration not stated) [SOTALOL]	23%	48%	24.7 µM	14.4 µM	BP [17]: -23%; HR [18]: -23%; minimal effective dose [6]: 1.4 mg/kg; FRP [8]: 16%; HR [9]: -11%; BP [11]: 8%
CC(C(=O)c1ccc(NS(C)(=O)=O)cc1)n1cc[n+](C)c1.[Cl-] (configuration not stated)	22%	65%	7.7 µM	3 µM	
C[n+]1ccn(CC(C)(O)c2ccc(NS(C)(=O)=O)cc2)c1.[Cl-] (configuration not stated)	29%	71%	24.3 µM	1.5 µM	

Source: ChEMBL document CHEMBL1123572, “Synthesis and antiarrhythmic activity of novel 3-alkyl-1-[omega-[4-[(alkylsulfonyl)amino]phenyl]-omega- hydroxyalkyl]-1H-imidazolium salts and related compounds. 2” (1987)
